Measured values taken from US20130336940A1, “MODIFIED PIG ISLETS FOR DIABETES TREATMENT” (UNIVERSITE CATHOLIQUE DE LOUVAIN, priority 2011, published 2013).

What was measured:
isolated pig islets [1] = assay: In vitro islet functionality (24 hr incubation at G5, G15, G15+Fsk; insulin/glucagon RIA); assay type: cell-based; conditions: for G15/G5 ratio of insulin secretion: native islets 1.16; for glucagon content, fold vs native islets: 50 mg/kg treated islets; for insulin secretion, fold vs 50 mg/kg treated islets / insulin secretion, fold vs native islets: islets from pigs treated with 30 mg/kg STZ; for glucagon secretion, fold in comparison to 0 mg/kg / glucagon secretion, fold in comparison to 30 mg/kg: islets from pigs treated with 50 mg/kg STZ
Procedure: The following steps were performed with the samples kept on ice. […] The samples were then sonicated 4×20 seconds (Sonifier B 12 [Branson Sonic Power Company, Danbury, Conn., USA]) and centrifugated 10 minutes at 4° C. at 1500 rpm. The first supernatant formed was removed and kept at −20° C. […] The samples were then kept at −20° C. overnight. After a step of centrifugation 10 minutes at 4° C. at 1500 rpm, the second supernatant was removed and kept at −20° C. […] The three supernatants were then pooled and constituted the pancreas extract. Human insulin specific RIA KIT and Glucagon RIA KIT (Millipore, Billerica, Mass., USA) were used for the determination of the hormonal content in human/pig pancreatic extractions as well as in isolated islets (see below). The content of insulin and glucagon in the extracts was performed following the instructions of the manufacturer. […] After incubation overnight at room temperature, 1 mL of precipitating reagent were added, followed by incubation 20 minutes at 4° C. The samples were then centrifuged 20 minutes at 2000-3000×g at 4° C.
Three replicates per concentration were performed. Media were thereafter recovered for insulin and glucagon quantification and islets were transferred in acid-ethanol for hormones extraction and quantification by radioimmuno-assay (see above).

pigs = assay: Intravenous glucose tolerance test (IVGTT) in STZ-injected pigs; assay type: in vivo, pig
Procedure: […] STZ was solubilised in citrate buffer (25% v/v Na citrate, 23% v/v citric acid, 52% v/v H2O, pH 4.5) and filtered before injection in the external jugular vein (Dufrane, Transplantation, 2006).
Intravenous glucose tolerance tests (IVGTTs) were performed prior and 3 months after STZ injection under general anesthesia (induction by Zoletil (VIRBAC, Carros, France) IM at a dose of 6 mg/kg, maintained by intubation and inhalation of Enflurane (0-1.5%), nitrous oxide and oxygen. A catheter was introduced in the extern jugular vein and a solution of 0.5 g glucose/kg was injected. Blood samples were taken prior and 1, 3, 5, 10, 20, 30, 60, 90 minutes after complete injection of glucose. Glycaemia was measured on these samples (AccuChek, Roche, Brussels, Belgium) and serum was conserved for radioimmuno assay (RIA) quantifications (insulin, c-peptide).

hamsters = conditions: after STZ treatment; cited from earlier work
isolated pig islets [2] = assay: Islet structure after isolation (histology of isolated islets from STZ-treated pigs); assay type: in vivo; conditions: for proportion of beta-cells in islets: mean±SD, native 91.47±1.19
Procedure: (ii) Young pig islets treated with selected doses of STZ (0, 30, 50 mg/kg) were isolated following a method previously described by Dufrane et al, Xenotransplantation, 2006. Briefly, after being completely dissected, the pancreas were digested by a modified static digestion method: infusion of the pancreas with Liberase DL Research Grade (Roche/Boehringer Mannheim, Brussels, Belgium; 0.43 mg/mL) dissolved in modified UW solution; placement in a sterile 1 L Nalgene jar for digestion by static incubation at 37° C. for 30-50 minutes; filtration in a 500 μm filter; purification in a ficoll grade (densities 1.090, 1.060 and 1.010) (Mediatech Cellgro); washing and suspension of the islets in Ham-F10 (Gibco)+10% New Born Calf Serum (NCS; Merck-Eurolab, Overijse, Belgium).
The cellular composition of human and pig isolated islets was determined by immunohistochemistry. After overnight fixation in formol at room temperature, aliquots of islet preparations were embedded in paraffin and cut in 5 μm sections. Insulin and glucagon staining were performed as described above.
Alpha and β cells proportion and localization (for pig and human) inside islets were compared in isolated islets from 0, 30 and 50 mg/kg STZ pigs in 3 groups of 5 islets (50-99, 100-149 and 150-200 μm).

[3] = STZ 30 mg/kg, isolated islets of 50-150 μm
[4] = STZ 50 mg/kg, isolated islets of 50-150 μm
[5] = STZ 50 mg/kg, isolated islets of each size

CN(N=O)C(=O)N[C@H]1C(O)O[C@H](CO)[C@@H](O)[C@@H]1O (mixture of isomers) [STZ, Streptozotocin]
stimulation index increase in comparison to native islets (isolated pig islets [1]; 30 mg/kg STZ): 45%
G15/G5 ratio of insulin secretion (isolated pig islets [1]; 30 mg/kg STZ-treated islets): 1.68
insulin content, times more than native islets (isolated pig islets [1]; 30 mg/kg STZ, G5 stimulation): 3.3 times
insulin content, times more than native islets (isolated pig islets [1]; 30 mg/kg STZ, G15 stimulation): 2.5 times
stimulation index increase in comparison to native islets (isolated pig islets [1]; 50 mg/kg STZ): 28%
G15/G5 ratio of insulin secretion (isolated pig islets [1]; 50 mg/kg STZ-treated islets): 1.49
insulin content, times higher than native islets (isolated pig islets [1]; 50 mg/kg STZ, G5 stimulation): 1.5 times
insulin secretion increase in comparison with native pig islets (isolated pig islets [1]; 50 mg/kg STZ, G5 stimulation): 1.3 times
insulin content, times higher than native islets (isolated pig islets [1]; 50 mg/kg STZ, G15 stimulation): 1.4 times
insulin secretion increase in comparison with native pig islets (isolated pig islets [1]; 50 mg/kg STZ, G15 stimulation): 1.4 times
glucagon content, fold vs native islets (isolated pig islets [1]; G5): 7.9 ×
glucagon content, fold vs native islets (isolated pig islets [1]; G15 stimulation): 10.4 ×
increase of the secretion of glucagon by isolated pig islets (isolated pig islets [1]; after 30-50 mg/kg STZ): 1.3 to 3.0 ×
increase of insulin release (isolated pig islets [1]; islet remodeling with low doses of STZ): 1.29 to 2.13 ×
glucagon content, times higher than native islets (isolated pig islets [1]; islets from 30 mg/kg treated pigs, G5-G15 stimulations): 4.4 times
insulin secretion, fold vs 50 mg/kg treated islets (isolated pig islets [1]; G5 stimulation): 1.6 ×
insulin secretion, fold vs native islets (isolated pig islets [1]; G5 stimulation): 2.1 ×
insulin secretion, fold vs 50 mg/kg treated islets (isolated pig islets [1]; G15 stimulation): 1.5 ×
insulin secretion, fold vs native islets (isolated pig islets [1]; G15 stimulation): 2.1 ×
glucagon secretion, fold in comparison to 0 mg/kg (isolated pig islets [1]; G5 stimulation): 2.5 ×
glucagon secretion, fold in comparison to 30 mg/kg (isolated pig islets [1]; G5 stimulation): 2.0 ×
glucagon secretion, fold in comparison to 0 mg/kg (isolated pig islets [1]; G15 stimulation): 3.0 ×
glucagon secretion, fold in comparison to 30 mg/kg (isolated pig islets [1]; G15 stimulation): 1.6 ×
AUC for IVGTT curves (pigs; STZ 150 mg/kg): significant higher AUC
glucose metabolism (IVGTT curves) (pigs; STZ 30, 50, 75 and 100 mg/kg, single injection, IVGTT 3 months after, vs control animals): not sufficient to induce dysfunction in glucose metabolism
glucose uptake (IVGTT) (pigs; STZ 30-50 mg/kg): did not affect glucose uptake
glucagon content (hamsters): increased
number of alpha cells per islet in comparison to humans (isolated pig islets [2]; [3]): higher number of alpha cells
proportion of beta-cells in islets (isolated pig islets [2]; [3]): 60.46±3.70
proportion of alpha cells per islet in comparison to humans (isolated pig islets [2]; STZ 30 mg/kg, isolated islets of 100-150 μm): higher proportion of alpha cells
number of beta cells per islet in comparison to humans (isolated pig islets [2]; STZ 30 mg/kg, isolated islets of 100-200 μm): higher number of beta cells
number of beta cells in comparison to humans (isolated pig islets [2]; [4]): higher
proportion of beta-cells in islets (isolated pig islets [2]; [4]): 60.46±4.55
alpha cell proportion in comparison to humans (isolated pig islets [2]; [5]): higher alpha cell proportion
number of alpha cells per islet in comparison to humans (isolated pig islets [2]; [5]): higher number of alpha cells
number of beta cells in comparison to humans (isolated pig islets [2]; STZ 50 mg/kg, large isolated islets (150-200 μm)): similar
decrease of β-cells (proportion) (isolated pig islets [2]; STZ 30-50 mg/kg): 30%
increase of α-cells (isolated pig islets [2]; STZ 30-50 mg/kg): ~300%
α-cells in remodeled pig islet (isolated pig islets [2]; STZ 30-50 mg/kg): 30%
β-cells in remodeled pig islet (isolated pig islets [2]; STZ 30-50 mg/kg): 60%
